{"source": "patent US5744455A", "about": "(priority 1993, dated 1998)", "origin": "cited, not measured here", "key": {"myocardial lesions": {"tested_on": "myocardial lesions", "conditions": "doxorubicin alone"}, "[1]": {"tested_on": "cardiac glutathione peroxidase"}, "[2]": {"tested_on": "doxorubicin-induced toxicity", "conditions": "humans and other species"}, "[3]": {"tested_on": "daunorubicin cardiotoxicity", "conditions": "ICRF 187 given prior to daunorubicin"}, "[4]": {"assay": "not given", "remark": "listed apart in the source"}, "[5]": {"tested_on": "chronic cardiotoxicity induced by Adriamycin", "conditions": "ICRF 187 12.5 mg/kg 30 minutes prior to Adriamycin 1.0 mg/kg"}, "[6]": {"assay": "not given", "remark": "listed apart in the source"}, "human tumors": {"tested_on": "human tumors", "conditions": "single agents"}, "[7]": {"tested_on": "doxorubicin cardiotoxicity", "conditions": "non-cancer-bearing animals"}, "heart lesions": {"tested_on": "heart lesions", "conditions": "doxorubicin and ICRF 187"}, "[8]": {"tested_on": "chronic daunorubicin cardiotoxicity", "conditions": "30 minutes prior to daunorubicin, 12.5 and 25 mg/kg"}, "[9]": {"assay": "not given", "remark": "listed apart in the source"}}, "note": "Like-named read-outs stand apart in the source and are kept apart here.", "data": [{"compound": "COc1cccc2c1C(=O)c1c(O)c3c(c(O)c1C2=O)C[C@@](O)(C(=O)CO)C[C@@H]3O[C@H]1C[C@H](N)[C@H](O)[C@H](C)O1", "note": "[doxorubicin]", "values": [{"measurement": "animals with myocardial lesions", "setting": "myocardial lesions", "value": "eight of nine"}, {"measurement": "cardiac glutathione peroxidase activity", "setting": "[1]", "value": "directly depresses cardiac glutathione peroxidase activity"}, {"measurement": "risk for development of cardiotoxicity", "setting": "accumulated doses greater than 450 mg/m^2", "value": "greater than 10%"}, {"measurement": "alopecia (hair loss)", "setting": "human, in vivo", "value": "occurs frequently"}, {"measurement": "nausea and vomiting", "setting": "human, in vivo", "value": "occur regularly"}, {"measurement": "peak of myelosuppression", "setting": "human, in vivo", "value": "approximately 14±2 days"}, {"measurement": "recovery from myelosuppression", "setting": "human, in vivo", "value": "15 to 18", "unit": "days"}, {"measurement": "cardiotoxicity on prolonged infusion", "setting": "infusion over extended periods, e.g., 96 hours", "value": "small but measurable decrease in cardiotoxicity"}, {"measurement": "patients developing unacceptable clinical toxicity", "setting": "total cumulative dose 450 mg/m^2", "value": "5-10%"}]}, {"compound": "CC(=O)N[C@@H](CS)C(=O)O", "note": "[N-acetyl cysteine]", "values": [{"measurement": "cardioprotection against doxorubicin-induced toxicity", "setting": "[2]", "value": "did not result in significant cardioprotection"}]}, {"compound": "O=C(O)CN(CCN(CC(=O)O)CC(=O)O)CC(=O)O", "note": "[EDTA, ethylenediaminetetraacetic acid]", "values": [{"measurement": "erythrocyte ghost destruction by iron-doxorubicin complex", "setting": "erythrocyte ghost", "value": "can prevent erythrocyte ghost destruction"}]}, {"compound": "Cc1c(C)c2c(c(C)c1O)CCC(C)(CCCC(C)CCCC(C)CCCC(C)C)O2", "note": "(stereo not drawn) [Alpha-tocopherol]", "values": [{"measurement": "cardioprotection against doxorubicin-induced toxicity", "setting": "[2]", "value": "did not result in significant cardioprotection"}]}, {"compound": "C[C@@H](CN1CC(=O)NC(=O)C1)N1CC(=O)NC(=O)C1", "note": "[ICRF 187, (+)-1,2-bis(3,5-dioxopiperazinyl-1-yl)propane]", "values": [{"measurement": "daunorubicin lethality and cardiotoxicity", "setting": "[3]", "value": "a reduction of lethality and cardiotoxicity"}, {"measurement": "solubility", "setting": "[4]", "value": "more water soluble"}, {"measurement": "Adriamycin-induced chronic cardiotoxicity", "setting": "[5]", "value": "prevented cardiotoxicity in all treated animals"}, {"measurement": "SGOT and SGPT, vomiting, alopecia", "setting": "[6]; 1500 mg/m^2", "value": "mild elevations of SGOT (serum glutamate-oxalate transaminase) and SGPT (serum glutamic-pyruvic transaminase), occasional vomiting and some alopecia"}, {"measurement": "predominant adverse effects", "setting": "[6]; 1500 mg/m^2", "value": "leukopenia and thrombocytopenia"}, {"measurement": "dose limiting toxicity", "setting": "[6]; administered three times daily, every three days, only chemotherapeutic agent", "value": 1500, "unit": "mg/m^2"}, {"measurement": "dose limiting toxicity", "setting": "[6]; daily, for three consecutive days every three weeks", "value": 1500, "unit": "mg/m^2"}, {"measurement": "anti-tumor effect as single agent", "setting": "human tumors", "value": "little effect against human tumors"}, {"measurement": "doxorubicin cardioprotection", "setting": "[7]", "value": "shown promise"}, {"measurement": "dogs with no abnormalities in the hearts", "setting": "heart lesions", "value": "three of six"}, {"measurement": "dogs with minimal heart lesions", "setting": "heart lesions; six dogs", "value": "three"}, {"measurement": "chronic daunorubicin cardiotoxicity", "setting": "[8]", "value": "reduced"}]}, {"compound": "O=c1[nH]cc(F)c(=O)[nH]1", "note": "[Fluorouracil, fluorouracil]", "values": [{"measurement": "oral absorption", "setting": "[9]", "value": "very poor absorption"}]}, {"compound": "CC(CN1CC(=O)NC(=O)C1)N1CC(=O)NC(=O)C1", "note": "(racemic) [ICRF 159, (±)-1,2-bis(3,5-dioxopiperazinyl-1-yl)propane]", "values": [{"measurement": "solubility", "setting": "[4]", "value": "low solubility"}, {"measurement": "anti-tumor effect as single agent", "setting": "human tumors", "value": "little effect against human tumors"}, {"measurement": "doxorubicin cardioprotection", "setting": "[7]", "value": "shown promise"}]}]}
